What all share (type): cell-based
Assay [1] deals with Moraxella catarrhalis. In words: MIC against Gram-negative bacteria: Moraxella catarrhalis. As to conditions: for MIC M. catarrhalis / MIC: 10 h cultivation at 37° C.; for MIC M. catarrhalis: two-fold serial dilution; for MIC: M. catarrhalis. An outline of the steps:
(§1)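 Bacteria grown in LB at 37° C with shaking to McFarland 0.5, pelleted and resuspended in fresh LB, then seeded at 5×10^5 CFU/mL per well. Purified recombinant human EGF domain proteins were two-fold serially diluted in triplicate and plates shaken at 37° C, 175 rpm. MIC is the lowest protein concentration with no bacterial growth.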

For assay [2], the system named is Proteus mirabilis. Description: MIC against Gram-negative bacteria: Proteus mirabilis. To be noted: for MIC P. mirabilis / MIC: 10 h cultivation at 37° C.; for MIC P. mirabilis: two-fold serial dilution; for MIC: P. mirabilis. An outline of the steps: as §1
Assay [3] relates to Citrobacter diversus. Description: MIC against Gram-negative bacteria: Citrobacter diversus. To be noted: for MIC C. diversus / MIC: 10 h cultivation at 37° C.; for MIC C. diversus: two-fold serial dilution; for MIC: C. diversus. An outline of the steps:
as §1

Assay [4] relates to Proteus vulgaris. In words: MIC against Gram-negative bacteria: Proteus vulgaris. As to conditions: for MIC P. vulgaris / MIC: 10 h cultivation at 37° C.; for MIC P. vulgaris: two-fold serial dilution; for MIC: P. vulgaris. An outline of the steps: as §1
The test system of assay [5] is E. coli DH5α. Description: Antibacterial activity: MIC and growth curve against E. coli DH5α in 96-well plate. As to conditions: minimal inhibitory concentration against E. coli DH5α; 96-well plate, 5×10^5 CFU/mL, 37° C., judged after 8 h. The method, boiled down:
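MIC taken as lowest protein level with no bacterial growth, tracked by A600 every 30 min during 37 °C, 175 rpm culture. Two-fold protein series 50-12.5 μg/mL final, triplicate wells, against 5×10^5 CFU/mL of LB-washed mid-log cells.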

For assay [6], the system named is Klebsiella pneumonia. In words: MIC against Gram-negative bacteria: Klebsiella pneumonia. To be noted: for MIC K. pneumonia / MIC: 10 h cultivation at 37° C.; for MIC K. pneumonia: two-fold serial dilution; for MIC: K. pneumonia. An outline of the steps:
as §1

Assay [7] has as its system Aeromonas hydrophila. In words: MIC against Gram-negative bacteria: Aeromonas hydrophila. To be noted: for MIC A. hydrophila / MIC: 10 h cultivation at 37° C.; for MIC A. hydrophila: two-fold serial dilution; for MIC: A. hydrophila. The method, boiled down: as §1
In assay [8] the test system is Serratia marcescens. In words: MIC against Gram-negative bacteria: Serratia marcescens. As to conditions: for MIC S. marcescens / MIC: 10 h cultivation at 37° C.; for MIC S. marcescens: two-fold serial dilution; for MIC: S. marcescens. An outline of the steps: as §1
Assay [9] deals with E. coli BL21. In words: MIC against Gram-negative bacteria: E. coli BL21. To be noted: for MIC E. coli BL21 / MIC: 10 h cultivation at 37° C.; for MIC E. coli BL21: two-fold serial dilution. The method, boiled down: as §1
For assay [10], the system named is Enterobacter cloacae. Description: MIC against Gram-negative bacteria: Enterobacter cloacae. To be noted: for MIC E. cloacae / MIC: 10 h cultivation at 37° C.; for MIC E. cloacae: two-fold serial dilution; for MIC: E. cloacae. An outline of the steps:
as §1

For assay [11], the system named is Pseudomonas aeruginosa. In words: MIC against Gram-negative bacteria: Pseudomonas aeruginosa. To be noted: for MIC P. aeruginosa / MIC: 10 h cultivation at 37° C.; for MIC P. aeruginosa: two-fold serial dilution; for MIC: P. aeruginosa. An outline of the steps: as §1

The term MIC denotes the smallest concentration in the dilution series that meets the test's criterion for growth inhibition. Read a low MIC as greater potency. Turning to “PRT1088 (PVNPCCYYPCQHQGICVRFGLDRYQCDCTRTGYSGPNCT; listed as Homo sapiens)”, the “MIC M. catarrhalis” value in [1] (5×10^5 CFU/mL) stood at 25 µg/mL. For the same substance, in [2] (5×10^5 CFU/mL), the “MIC P. mirabilis” value came to 12.5 µg/mL. The “MIC C. diversus” value in assay [3] (5×10^5 CFU/mL) came out at 50 µg/mL. Further, the “MIC P. vulgaris” value in [4] (5×10^5 CFU/mL) worked out at 25 µg/mL. In assay [5], this substance gave an MIC of 25 µg/mL. Besides, the “MIC K. pneumonia” value in [6] (5×10^5 CFU/mL) was 12.5 µg/mL. Moreover, the “MIC A. hydrophila” value in [7] (5×10^5 CFU/mL) is 50 µg/mL. In addition, in assay [8] (5×10^5 CFU/mL), the “MIC S. marcescens” value was 50 µg/mL. The “MIC E. coli BL21” value in [9] (5×10^5 CFU/mL) is 50 µg/mL. The “MIC E. cloacae” value in [10] (5×10^5 CFU/mL) was 50 µg/mL. Further, in [11] (5×10^5 CFU/mL), the “MIC P. aeruginosa” value is 50 µg/mL.
“PRT443 (DIDECENTDACQHECKNTFGSYQCICPPGYQLTHNGKTCQ; listed as Homo sapiens)”: the MIC in [1] (5×10^5 CFU/mL) worked out at 12.5 µg/mL; in assay [2] (5×10^5 CFU/mL), 25 µg/mL; in assay [3] (5×10^5 CFU/mL) it was 25 µg/mL; in assay [4] (5×10^5 CFU/mL), 12.5 µg/mL; in assay [5] it was 12.5 µg/mL; in [6] (5×10^5 CFU/mL), 12.5 µg/mL. Besides, the MIC in assay [7] (5×10^5 CFU/mL) came to 12.5 µg/mL; in assay [8] (5×10^5 CFU/mL) it was 50 µg/mL; in [9] (E. coli BL21, 5×10^5 CFU/mL), 25 µg/mL; in assay [10] (5×10^5 CFU/mL), 12.5 µg/mL; in assay [11] (5×10^5 CFU/mL) it was 12.5 µg/mL.
Regarding “PRT922 (LQCRDGYEPCVNEGMCVTYHNGTGYCKCPEGFLGEYCQ; listed as Homo sapiens)”, the minimum inhibitory concentration (MIC) was found to be 25 µg/mL in assay [1]; 50 µg/mL in assay [2]; 25 µg/mL in [3]; 25 µg/mL in [4]; 12.5 µg/mL in assay [5]; 12.5 µg/mL in [6]. The MIC in assay [7] was 25 µg/mL; in assay [8], 12.5 µg/mL; in assay [9] (E. coli BL21), 25 µg/mL; in assay [10] it was 25 µg/mL; in assay [11], 12.5 µg/mL.
For “PRT1045 (HGPGCQEHCLCLHGGVCQATSGLCQCAPGYTGPHCA; listed as Homo sapiens)”, the “MIC M. catarrhalis” value in [1] (5×10^5 CFU/mL) was 50 µg/mL. In addition, the “MIC P. mirabilis” value in [2] (5×10^5 CFU/mL) was found to be 12.5 µg/mL. In addition, the “MIC C. diversus” value in [3] (5×10^5 CFU/mL) worked out at 50 µg/mL. For the same substance, the “MIC P. vulgaris” value in assay [4] (5×10^5 CFU/mL) is 50 µg/mL. In assay [5], this substance showed a minimal inhibitory concentration (MIC) of 25 µg/mL. In addition, the “MIC K. pneumonia” value in assay [6] (5×10^5 CFU/mL) was 50 µg/mL. The “MIC A. hydrophila” value in assay [7] (5×10^5 CFU/mL) is 50 µg/mL. Further, in [8] (5×10^5 CFU/mL), the “MIC S. marcescens” value was 50 µg/mL. For the same substance, the “MIC E. coli BL21” value in assay [9] (5×10^5 CFU/mL) turned out to be 50 µg/mL. Also, in [10] (5×10^5 CFU/mL), the “MIC E. cloacae” value is 12.5 µg/mL. For the same substance, the “MIC P. aeruginosa” value in assay [11] (5×10^5 CFU/mL) was determined as 25 µg/mL.
As for “PRT33 (ACELHTFGRTCKERCSGQEGCKSYVFCLPDPYGCSCATGWKGLQCN; listed as Homo sapiens)”, in [1] (Moraxella catarrhalis, 96-well plate, 5×10^5 CFU/mL, 37° C., 10 h), the “MIC (μg/mL) M. catarrhalis” value turned out to be 12.5 µg/mL. For the same substance, the “MIC (μg/mL) P. mirabilis” value in [2] (Proteus mirabilis, 96-well plate, 5×10^5 CFU/mL, 37° C., 10 h) was found to be 25 µg/mL. Further, the “MIC (μg/mL) C. diversus” value in assay [3] (Citrobacter diversus, 96-well plate, 5×10^5 CFU/mL, 37° C., 10 h) came out at 12.5 µg/mL. Also, in assay [4] (Proteus vulgaris, 96-well plate, 5×10^5 CFU/mL, 37° C., 10 h), the “MIC (μg/mL) P. vulgaris” value worked out at 25 µg/mL. For the same substance, the minimal inhibitory concentration (MIC) in assay [5] was determined as 12.5 µg/mL. For the same substance, the “MIC (μg/mL) K. pneumonia” value in assay [6] (Klebsiella pneumonia, 96-well plate, 5×10^5 CFU/mL, 37° C., 10 h) is 12.5 µg/mL. In addition, the “MIC (μg/mL) A. hydrophila” value in [7] (Aeromonas hydrophila, 96-well plate, 5×10^5 CFU/mL, 37° C., 10 h) is 12.5 µg/mL. The “MIC (μg/mL) S. marcescens” value in [8] (Serratia marcescens, 96-well plate, 5×10^5 CFU/mL, 37° C., 10 h) amounted to 12.5 µg/mL. Also, the “MIC (μg/mL) E. coli BL21” value in assay [9] (E. coli BL21, 96-well plate, 5×10^5 CFU/mL, 37° C., 10 h) was found to be 50 µg/mL. Besides, the “MIC (μg/mL) E. cloacae” value in [10] (Enterobacter cloacae, 96-well plate, 5×10^5 CFU/mL, 37° C., 10 h) came to 25 µg/mL. Moreover, the “MIC (μg/mL) P. aeruginosa” value in assay [11] (Pseudomonas aeruginosa, 96-well plate, 5×10^5 CFU/mL, 37° C., 10 h) is 12.5 µg/mL.
Take “PRT1081 (APNPCEANGGQGPCSHLCLINYNRTVSCACPHLMKLHKDNTTCY; listed as Homo sapiens)”: the “MIC M. catarrhalis” value in assay [1] (5×10^5 CFU/mL) amounted to 12.5 µg/mL. The “MIC P. mirabilis” value in [2] (5×10^5 CFU/mL) was determined as 25 µg/mL. Besides, the “MIC C. diversus” value in assay [3] (5×10^5 CFU/mL) was 50 µg/mL. Also, the “MIC P. vulgaris” value in assay [4] (5×10^5 CFU/mL) turned out to be 50 µg/mL. Moreover, in assay [5], the MIC amounted to 25 µg/mL. Besides, the “MIC K. pneumonia” value in assay [6] (5×10^5 CFU/mL) was found to be 12.5 µg/mL. In assay [7] (5×10^5 CFU/mL), the “MIC A. hydrophila” value stood at 12.5 µg/mL. In addition, the “MIC S. marcescens” value in assay [8] (5×10^5 CFU/mL) was 12.5 µg/mL. The “MIC E. coli BL21” value in assay [9] (5×10^5 CFU/mL) worked out at 12.5 µg/mL. Moreover, the “MIC E. cloacae” value in assay [10] (5×10^5 CFU/mL) is 50 µg/mL. Besides, in assay [11] (5×10^5 CFU/mL), the “MIC P. aeruginosa” value was found to be 50 µg/mL.

These data come from patent publication US9833497B2, “Human originated EGF domain proteins and use of the same” (CHENGDU SOURCEBIO LIMITED-LIABILITY COMPANY, priority 2013, dated 2017).
